Measured values from patent US20150211005A1, “MIRNA MODULATORS OF THERMOGENESIS” (APTAMIR THERAPEUTICS, INC., priority 2012, published 2015).

Experiments:
[1] = system: human subcutaneous adipocytes; experiment: Phenotypic changes of mature adipocytes cultured two weeks, bright field microscopy; type: cell-based; settings: day 28; for Average size of lipid droplet: change versus control (Ref); for Average size of lipid droplet / Picture field covered by adipocytes (% of control) / Cell area occupied by lipid droplets (%) / Number of lipid droplet per cell: 50 nM miRNA analogs, 10 μM CL316,243, 10 nM T3, 100 nM Rosiglitazone; for Picture field covered by adipocytes (% of control): Dharmafect 4; for Cell area occupied by lipid droplets (%): control 42%; for Number of lipid droplet per cell: control 68
Procedure: Human subcutaneous adipocytes were plated in 6-well plates at a density of 391,000 cells per well as described above. Using Dharmafect 4, these adipocytes were transfected at Day 14 with:
1. […] A negative control (mock transfection) 3.
At day 17, the cells were switched to maintenance medium, which was then changed every two-three days until day 28 when bright field microscopy pictures of the cells were taken.

UCP1 = experiment: RNA-Seq mRNA expression during pre-adipocyte differentiation: UCP1; type: cell-based, human; settings: pre-adipocytes, 12 days, rosiglitazone 100 nM renewed every other day, miRNA analogs 25 nM, one transfection
Procedure: (§1) In order to assess the effect of miRNA analogs on human pre-adipocytes differentiation into mature adipocytes, human subcutaneous pre-adipocytes (SuperLot 0048 from 8 female donors, ZenBio, NC) were plated on Day 0 into 96-well plates and allowed to attach overnight in preadipocyte medium (DMEM/Ham's F-12 (1:1, v/v), HEPES buffer, Fetal bovine serum and Antibiotics). […] All treatments were in triplicate. Post transfection, the negative control was maintenance medium only and the positive control was maintenance medium with 100 nM of the PPARG agonist rosiglitazone. After 2 days, medium was removed and replaced with fresh maintenance medium. The maintenance medium then changed every two days until the end of the treatment period (Day 15). At the end of the treatment (total of 15 days in culture) cells were processed for Phenotyping and Genotyping Screening.
(§2) Profiling of mRNA changes occurring during the differentiation of human pre-adipocyte into mature adipocyte induced by rosiglitazone or miRNA analogs was performed by RNA-Seq technology. […]
(§3) Changes in mRNA expression of UCP1, 2 and 3 were also measured in the presence of rosiglitazone or miRNA analogs, as shown below in Table 18.

UCP3 = experiment: RNA-Seq mRNA expression during pre-adipocyte differentiation: UCP3; type: cell-based, human; settings: pre-adipocytes, 12 days, rosiglitazone 100 nM renewed every other day, miRNA analogs 25 nM, one transfection
Procedure: as §1, §2, §3

Row | Compound | Average size of lipid droplet [1] [%] | Picture field covered by adipocytes (% of control) [1] | Cell area occupied by lipid droplets (%) [1] [%] | Number of lipid droplet per cell [1] | mRNA Expression changes UCP1 (UCP1) [log ratios] | mRNA Expression changes UCP3 (UCP3) [log ratios] | cell density and browning appearance (bright field, FIG. 22) ([1]; in reference to the control condition)
1 | CN(CCOc1ccc(CC2SC(=O)NC2=O)cc1)c1ccccn1 (centres unmarked) [Rosiglitazone] | −19 | +198% of control | 57 | 113 | 15.70 | 0.26 | –
2 | C[C@H](Cc1ccc2c(c1)OC(C(=O)[O-])(C(=O)[O-])O2)NC[C@H](O)c1cccc(Cl)c1.[Na+].[Na+] [CL316,243] | −44 | +24% of control | 44 | 124 | – | – | increase in cell density and “browning” appearance
